According to US20160215348A1, “GENE EXPRESSION BIOMARKERS AND THEIR USE FOR DIAGNOSTIC AND PROGNOSTIC APPLICATION IN PATIENTS POTENTIALLY IN NEED OF HDAC INHIBITOR TREATMENT” (4SC AG, priority 2013, published 2016):

Key:
Type in all cases: in vivo, human
[1] = tested on: hepatocellular cancer (HCC); experiment: SHELTER clinical trial, overall survival (Kaplan-Meier) by baseline ZFP64 expression
Experimental: Resminostat was explored as monotherapy and in combination with sorafenib. Patients with advanced HCC (BCLC staging B/C) were included in a multi-center, two-arm trial. […] A dose escalation of resminostat (range 200 to 600 mg) combined with Sorafenib (400 or 800 mg) was performed. Arm A investigated the drug combination (resminostat+sorafenib), Arm B the monotherapy of resminostat (600 mg). Primary objective was the progression-free survival rate (PFSR) after 12 weeks (w). Secondary objectives included safety, tolerability, tumor response, PFS, TTP, OS and the analyses of PK and biomarkers (BM), incl. HDAC enzyme inhibition, histone acetylation and gene expressions in peripheral blood. Based on the results and indications seen in the analysis in example 3a, the dCt values of ZFP64 at baseline were treated with the method described here for determining the split between gene expression groups. Data was processed as follows: Gene expression data of the genes of interest was gathered as real time PCR dCt values relative to the expression of housekeeping genes for a specific time point, e.g. at baseline prior to treatment start. […] Said two groups were then compared in Kaplan-Meier analyses for OS, PFS in order to identify a statistically significant difference that separates the patients' probability for OS, PFS.

[2] = tested on: DPP3; experiment: qPCR relative expression (vs cycle 1, day 1, hour 0) in patients' whole blood
Experimental: (§1) 2.5 ml whole blood from patients was collected in PAXgene™ tubes (BD Biosciences) that contain chemicals to lyse the erythrocytes, stabilize RNA from degradation by RNases and minimize ex vivo changes in gene expression. The samples were incubated at 20° C. to 25° C. for 2 hours and then frozen at −20° C. until purification of total RNA.
(§2) Total RNA was isolated from the whole blood samples stabilized in PAXgene™ buffer using a spin column based technique suitable for whole blood samples (like PAXgene™ Blood miRNA Kit or PAXgene™ Blood RNA Kit from Qiagen) according to the manufacturer's instructions. The purification began with a centrifugation step to pellet nucleic acids in the (PAXgene™ Blood RNA) tube. The resuspended pellet was incubated in buffers, optimized for maintenance of RNA stability together with proteinase K to bring about protein digestion. An additional centrifugation through the PAXgene™ Shredder spin column was carried out to homogenize the cell lysate and remove residual cell debris, and the supernatant of the flow-through fraction was transferred to a fresh microcentrifuge tube. Ethanol was added to adjust binding conditions, and the lysate was applied to a PAXgene™ RNA spin column. During a brief centrifugation, RNA was selectively bound to the PAXgene™ silica membrane as contaminants pass through. Remaining contaminants were removed in several efficient wash steps. Between the first and second wash steps, the membrane was treated with DNase I, as described herein below in 1.3 to remove trace amounts of bound DNA. After the wash steps, RNA was eluted in nuclease free water and heat-denatured.
(§3) The High-Capacity cDNA Reverse Transcription Kit (Applied Biosystems) was used for reverse transcription of total RNA into single stranded cDNA with the aid of random hexamer primers according to the manufacturer's instructions. Briefly, for the reaction mix total RNA was mixed with random primers in excess, 4 mM dNTP Mix, 2.5 U/reaction, reverse transcriptase and nuclease free water. The reverse transcription took place in a thermal cycler under the following conditions: 25° C. for 10 min, 37° C. for 120 min, 85° C. for 5 min, followed by 4° C. for cooling down the reaction. The reverse transcription can be done in principle as well with other reverse transcriptases, primers and temperature protocols. Whenever possible, 250 ng total RNA were reverse transcribed if not available, lower amounts were used.
(§4) Custom TaqMan® Arrays (Applied Biosystems) in Format 16 were designed for the gene expression analysis of biomarkers of the present invention and housekeeping genes as outlined in table 4. These arrays allow for qPCR analysis of 8 samples per card. Of course, all reactions can be done as well by conventional qPCR analysis with specific primers.
(§5) The reaction mix was transferred into the reaction chambers by centrifuging twice for 1 minute each at 330 g and 4° C. After sealing, the microfluidic cards were run on an AB7900HT instrument (Applied Biosystems). The software SDS 2.4 (Applied Biosystems) was employed for instrument control, data acquisition and raw data analysis. The plates were run in Relative Quantification (ΔΔCt) mode, and the following temperature profile was used:
(§6) This analysis was carried out for each patient separately. The first sample (cycle 1, day 1, hour 0) was used as the reference sample. The ‘exprs’ value indicates relative expression levels (fold change values) for individual samples.
(§7) Table 5 contains the median expression level values for treatment day 5 (cycle 1, day 5, hours 0, 2, and 5) at a daily dose of 600 mg or 800 mg Resminostat mesylate salt is given below.

[3] = tested on: HIST2H4A; HIST2H4B; experiment: as above
Experimental: as §1, §2, §3, §4, §5, §6, §7

[4] = tested on: ZFP64; experiment: as above
Experimental: as §1, §2, §3, §4, §5, §6, §7

[5] = tested on: 18S; experiment: as above
Experimental: as §1, §2, §3, §4, §5, §6, §7

[6] = tested on: GAPDH; experiment: as above
Experimental: as §1, §2, §3, §4, §5, §6, §7

[7] = tested on: KDELC2; experiment: as above
Experimental: as §1, §2, §3, §4, §5, §6, §7

[8] = tested on: MICALL1; experiment: as above
Experimental: as §1, §2, §3, §4, §5, §6, §7

[9] = SHELTER patients on resminostat 600 mg or resminostat 600 mg + sorafenib 400 mg, pooled, split at 75th percentile
[10] = SHELTER, single arm, resminostat 600 mg (combination: + sorafenib 400 mg), split at 75th percentile
[11] = all available SHELTER patients (monotherapy and sorafenib combination arms pooled), split 60% high/40% low
[12] = cycle 1, day 5, hour 0, 600 mg dose
[13] = cycle 1, day 5, hour 0, 800 mg dose
[14] = cycle 1, day 5, hour 2, 600 mg dose
[15] = cycle 1, day 5, hour 2, 800 mg dose
[16] = cycle 1, day 5, hour 5, 600 mg dose
[17] = cycle 1, day 5, hour 5, 800 mg dose

CN(C)Cc1ccc(S(=O)(=O)n2ccc(/C=C/C(=O)NO)c2)cc1 [resminostat, (E)-3-(1-(4-((dimethylamino)methyl)phenylsulfonyl)-1H-pyrrol-3-yl)-N-hydroxyacrylamide]
median OS (high ZFP64 expression) [1, 9]: 9.4 months
median OS (low ZFP64 expression) [1, 9]: 5.1 months
overall median OS for the two groups ([1]; SHELTER, single arm, resminostat 600 mg (combination: + sorafenib 400 mg)): 3.7 months
median OS for high ZFP64 expression [1, 10]: 7.0 months
median OS for low ZFP64 expression [1, 10]: 0.9 months
median OS (high ZFP64 expression) [1, 11]: 8 months
median OS (low ZFP64 expression) [1, 11]: 3.9 months
Median expression level, DPP3 [2, 12]: 1.121
Median expression level, DPP3 [2, 13]: 1.457
Median expression level, DPP3 [2, 14]: 0.767
Median expression level, DPP3 [2, 15]: 0.912
Median expression level, DPP3 [2, 16]: 0.267
Median expression level, DPP3 [2, 17]: 0.395
Median expression level, HIST2H4A; HIST2H4B [3, 12]: 0.875
Median expression level, HIST2H4A; HIST2H4B [3, 13]: 1.530
Median expression level, HIST2H4A; HIST2H4B [3, 14]: 2.111
Median expression level, HIST2H4A; HIST2H4B [3, 15]: 3.345
Median expression level, HIST2H4A; HIST2H4B [3, 16]: 2.042
Median expression level, HIST2H4A; HIST2H4B [3, 17]: 2.821
ZFP64 expression in cancer patients (FIG. 4b) ([4]; blood cells of HCC and HL patients, 600 or 800 mg daily, Day 1 and Day 5): down-regulates
Median expression level, ZFP64 [4, 12]: 0.980
Median expression level, ZFP64 [4, 13]: 1.280
Median expression level, ZFP64 [4, 14]: 0.412
Median expression level, ZFP64 [4, 15]: 0.356
Median expression level, ZFP64 [4, 16]: 0.228
Median expression level, ZFP64 [4, 17]: 0.188
Median expression level, 18S [5, 12]: 0.872
Median expression level, 18S [5, 13]: 0.635
Median expression level, 18S [5, 14]: 0.871
Median expression level, 18S [5, 15]: 0.682
Median expression level, 18S [5, 16]: 0.778
Median expression level, 18S [5, 17]: 0.550
Median expression level, GAPDH [6, 12]: 1.092
Median expression level, GAPDH [6, 13]: 1.136
Median expression level, GAPDH [6, 14]: 1.201
Median expression level, GAPDH [6, 15]: 1.362
Median expression level, GAPDH [6, 16]: 1.296
Median expression level, GAPDH [6, 17]: 1.228
Median expression level, KDELC2 [7, 12]: 0.909
Median expression level, KDELC2 [7, 13]: 1.141
Median expression level, KDELC2 [7, 14]: 0.544
Median expression level, KDELC2 [7, 15]: 0.509
Median expression level, KDELC2 [7, 16]: 0.215
Median expression level, KDELC2 [7, 17]: 0.215
Median expression level, MICALL1 [8, 12]: 0.981
Median expression level, MICALL1 [8, 13]: 1.024
Median expression level, MICALL1 [8, 14]: 0.395
Median expression level, MICALL1 [8, 15]: 0.407
Median expression level, MICALL1 [8, 16]: 0.201
Median expression level, MICALL1 [8, 17]: 0.163
